This note sets out measurements from patent publication US9580465B2, “Tissue protective peptides and peptide analogs for preventing and treating diseases and disorders associated with tissue damage” (ARAIM PHARMACEUTICALS, INC., priority 2008, dated 2017).

“Also recorded” adds a separate entry of the source. Square brackets hold non-standard residues; d marks the D form. pGlu = O=C1CC[C@@H](C(=O)O)N1

Data set [1] deals with bilateral renal ischemia. Briefly: Bilateral renal ischemia assay. The class given is in vivo, C57/BL6 mice. How it is done:
Sixty male C57/BL6 mice (˜25 g; Charles River Laboratories) were anesthetized with ketamine (150 mg/kg) and xylazine (15 mg/kg) i.p. Each animal was placed on a homeothermic blanket set at 37° C., and after a mid-line laparotomy, the renal pedicles were clamped for 30 minutes using nontraumatic vascular clamps. Peptide ID was administered at the indicated dose via i.p. Injection at 1 minute, 6 hours, and 12 hours after reperfusion. In a single dose study, the mice received a control (PBS), 1 μg/kg of Peptide IG at 1 minute, 1 μg/kg of Peptide IG at 30 minutes, 1 μg/kg of Peptide ID at 6 hours, or 10 μg/kg of Peptide ID at 6 hours (12 mice per group). In a multiple dose study, the mice received either multiple doses of a control (PBS), 0.1 μg/kg of Peptide ID, 1 μg/kg of Peptide ID, or 10 μg/kg of Peptide ID at 1 minute, 6 hours and 12 hours into reperfusion.
Twenty-four hours later, mice were reanesthetized and blood was obtained by cardiac puncture. Plasma urea and creatine were used as indicators of renal dysfunction and aspartate aminotransferase was used as an indicator of renal injury. Data were analyzed using ANOVA followed by Dunnett's post hoc test comparison.

The test system of data set [2] is full-thickness skin wounds. Briefly: Full thickness punch biopsy model of wound healing. The class given is in vivo, Sprauge-Dawley rats. As to conditions: 24 nmol/kg of bw s.c. daily for 10 days; FIG. 8. How it is done:
A full thickness punch biopsy model of wound healing was used to evaluate Peptide ID. In this experiment, 3.5 mm-diameter full-thickness skin wounds were placed at the corners of a 3 cm-wide square on the shaved and depilated scapular region of Sprauge-Dawley rats. Peptide ID (24 nmol/kg of bw, 9 rats) or PBS (9 rats) was administered subcutaneously daily for 10 days.

Data set [3] deals with 9 L gliosarcoma cells. Briefly: 9 L gliosarcoma implantation model, delayed treatment. The class given is in vivo, CD Fisher rats. Here is the method:
In accordance with the accordance with the protocol of Lampson et al. Cancer Res. 53:176-82:1993 described above, CD Fisher rats were implanted with 9 L gliosarcoma cells transfected with the LacZ gene by use of a Hamilton syringe. 100,000 cells in 10 microliters were injected into the right caudate.
ID with a short plasma half life, another receiving Peptide IW (pegylated form of Peptide IC) and the third group received saline. Peptides were given at a dose of 25 nmole/kg body weight. Three weeks later, the animals were sacrificed and serial 1 mm thick coronal sections cut through the brain and incubated with 5-bromo-4-chloro-3-indolyl-[beta]-D-galactopyranoside (Xgal). Tumor cells (containing the LacZ gene) metabolized Xgal into a dark blue stain, localizing the extent of tumor. High resolution digital images were obtained and the areas stained blue determined using planimetric methodology. Data is expressed as total area of tumor infiltration.

Data set [4] is described as follows: In vivo assessment of erythropoietic activity, 28 days i.v. in rats. Also noted: species or system Sprague Dawley rats. The note with it: 0, 60, 180, 600 μg/kg per dose i.v. twice a day for 28 days; blood on day 29; FIG. 2. How it is done:
To evaluate the erythropoietic activity of tissue protective peptides and peptide analogs, Peptide ID was administered intravenously twice a day to Sprague Dawley rats for 28 days. Nine male and nine female rats were assigned to groups 1-4 receiving 0, 60, 180, and 600 μg/kg per dose (0, 48, 143, and 477 nmol/kg, respectively) of Peptide ID in PBS by bolus intravenous administration from days 1-28, Blood samples to assay for hematological variables were collected on day 29. Hemoglobin concentration was determined by use of an automated analyzer (Keska Corporation).

Data set [5] can be described thus: Erythropoietic and hematopoietic effects, 28 days i.v. in rabbits. The class given is in vivo, New Zealand White rabbits. As to conditions: 30, 90, 300 μg/kg per dose i.v. twice daily for 28 days, baseline vs. day 29. How it is done: Further the erythropoietic and hematopoietic affects of Peptide ID were evaluated in rabbits. Blood samples were taken of all rabbits prior to the initiation of the study to establish the hematological baseline for the animals. Peptide ID was administered twice daily i.v. to New Zealand White rabbits for 28 days. For this study, six males and females were assigned to groups 1 and 4, and four males and four females were assigned to groups 2 and 3. Group 1 received 0, group 2 received 30 μg (24 nmol/kg bw), group 3 received 90 μg/kg (72 nmol/kg bw); and group 4 received 300 μg/kg (240 nmol/kg bw) per dose Peptide ID in PBS by bolus i.v. administration. Blood samples to assay for hematological variables were collected on day 29.

For data set [6], the system named is pressure ulcer. In words: Decubitus ulcer (pressure sore) assay. The class given is in vivo, Sprauge-Dawley rats. As to conditions: FIG. 20. Here is the method: A decubitus ulcer (pressure sore) assay was performed on 24 adult Sprauge-Dawley rats in accordance with the disclosure of Pierce et al., Selective A2A adenosine receptor activation reduces skin pressure ulcer formation and inflammation, Am J Physiol Heart Circ Physiol 281:67-74, 2001. Briefly, a ferromagnetic steel plate was implanted under a dorsal region of the rats skin. A rectangular permanent magnet was applied to the area of the skin under which the plate was implanted in order to compress the skin between the plate and the magnet. This compression reduced the flow of blood to the skin causing ischemia. The rats were subjected to a cycle of ischemia-reperfusion (2 hours ischemia with a 0.5 hour reperfusion) for a 72-hour period. […] Daily the area of the wound on each rat was measured for a period of 12 days.

The test system of data set [7] is total body gamma radiation. Briefly: Radiomitigating activity in hematopoietic screening assay. As to conditions: for survival at day 30: 30 ug/kg subcutaneously from 24 hrs after irradiation, daily for 29 days. The data set is classed as in vivo, C57BL/6 mice. How it is done:
The ability of peptides useful in the current therapeutic method to mitigate the effects of a radioactive agent on the hematopoietic system was evaluated in a murine model of radiation injury. Briefly, 80 C57BL/6 mice (50% female and 50% male, 15-28 gm) were used in the study were divided into two groups.
In both groups the radiation was administered to the mice as a single uniform total body dose of gamma radiation from a ^137Cs radiation source (GammaCell 40; Nordion International, Kanata, Ontario, Canada) at an exposure rate of 65-69 cGy/minute+/−2.5 cGy.
Group A received a LD70/30 dose of radiation (796 cGy) and then 20 of the mice were administered Peptide ID (30 ug/kg subcutaneously) at 24 hrs after irradiation and then once a day for 29 days. The remaining 20 mice (control group) received PBS (subcutaneously) at 24 hrs after irradiation and then once a day for 29 days.
The remaining 20 mice (control group) received PBS (subcutaneously) at 24 hrs after irradiation and then once a day for 29 days.
The mice were monitored for survival once a day until signs of early euthanasia appeared, then twice/day until day 30.

As for “UEQLERALNSS ([pGlu]EQLERALNSS-OH; also: acetate/ammonium mixed salt) [Peptide ID, first glutamine replaced with pyroglutamate]”, the “creatinine, urea and aspartate aminotransferase (biochemical markers of renal dysfunction)” value is listed as “reduction in these biochemical markers of renal dysfunction” in data set [1] (multiple doses 1 μg/kg at 1 minute, 6 hours and 12 hours into reperfusion, FIG. 7); “reduction in these biochemical markers of renal dysfunction” in data set [1] (multiple doses 10 μg/kg at 1 minute, 6 hours and 12 hours into reperfusion, FIG. 7); “reduction in these biochemical markers of renal dysfunction” in data set [1] (single dose 1 μg/kg at 6 hours into reperfusion, 24 hrs of reperfusion, FIG. 6); “reduction in these biochemical markers of renal dysfunction” in data set [1] (single dose 10 μg/kg at 6 hours into reperfusion, 24 hrs of reperfusion, FIG. 6). Further, the “area of open wound over treatment” value in data set [2] is on record as “faster healing; also recorded: healed more rapidly”. Further, in data set [3] (25 nmole/kg i.p. daily starting two weeks after implantation, three weeks, FIG. 13, 14), the “tumor size (total area of tumor infiltration)” value is reported as “smaller than the saline group, it was not significantly different; also recorded: reduced the size of tumor”. Besides, the tumor size result in data set [3] (daily treatment begun immediately after implantation, FIG. 14) is “substantially smaller tumors; also recorded: reduction in size of the tumor”. In addition, the hemoglobin concentration entry in data set [4] is “no difference in any of the groups”; in data set [5] (FIG. 3A), “no difference; also recorded: no effect”. The hematocrit result in data set [5] (FIG. 3B) is given as “no difference; also recorded: no effect”. Further, the platelet count result in data set [5] (FIG. 3C) is “no difference; also recorded: no effect”. In addition, the “wound (ulcer) size (area)” value in data set [6] (30 μg/kg sc daily, compared with all groups) is given as “smallest wound size”; in data set [6] (Peptide ID 30 μg/kg sc twice or daily, EPO daily, 12 days, versus saline) it was “reduced the size of the wound; also recorded: better wound healing”. Moreover, the “survival at day 30” value in data set [7] (796 cGy (LD70/30), FIG. 21A) is reported as 45%; in data set [7] (831 cGy (LD90/30), FIG. 21B), 20%. In addition, in data set [7] (796 cGy and 831 cGy, 30 ug/kg subcutaneously daily), the “thirty-day survival and overall survival time versus PBS” value is recorded as “significantly increased the overall survival time”.
